Experimental data: PMC4376459, “CXCR3 antagonist VUF10085 binds to an intrahelical site distinct from that of the broad spectrum antagonist TAK-779” (British Journal of Pharmacology, 2015)
Where a chain is given by its changes, count along the chain named.

How the values were obtained:
CXCR3 F207A = target: T1, CXCR3 F207A (Homo sapiens, UniProt P49682, F207A); assay: Chemotaxis assay, L1.2 transfectants migrating to CXCL11; type: cell-based
T1 construct: expressed in transfected cells; host or cells: murine pre-B cell line L1.2, transient transfection
T1 sequence (P49682 1-368 F207A): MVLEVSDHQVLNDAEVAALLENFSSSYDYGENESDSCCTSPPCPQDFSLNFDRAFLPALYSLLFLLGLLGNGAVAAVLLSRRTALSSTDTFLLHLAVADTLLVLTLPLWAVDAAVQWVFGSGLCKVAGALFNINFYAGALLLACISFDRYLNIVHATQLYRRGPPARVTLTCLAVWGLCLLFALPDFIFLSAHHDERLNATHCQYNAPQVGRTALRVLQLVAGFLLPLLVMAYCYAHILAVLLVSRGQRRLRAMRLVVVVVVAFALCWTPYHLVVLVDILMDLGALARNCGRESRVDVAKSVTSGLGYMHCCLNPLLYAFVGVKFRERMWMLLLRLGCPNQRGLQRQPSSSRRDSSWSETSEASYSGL
Protocol: (§1) A previously described pcDNA3 plasmid containing human wild type (WT) CXCR3 cDNA with an HA epitope tag encoded at the N terminus (Meiser et al., [2008]) was used as a template for the generation of point mutants by PCR using the QuikChange II site-directed mutagenesis kit (Stratagene, Amsterdam, the Netherlands). All constructs were verified by DNA sequencing (Eurofins MWG Operon, Ebersberg, Germany) before use. L1.2 cells were transiently transfected by electroporation with 1 μg of vector DNA/10^6 cells at 330V, 975μF and incubated overnight in medium supplemented with 10 mM of sodium butyrate to enhance gene expression.
(§2) Assays of chemotactic responsiveness were carried out as previously described (Vaidehi et al., [2009]) using 96-well ChemoTx® plates with 5 μm pores (Neuroprobe, Gaithersburg, MD, USA). Migrating cells were detected by the use of CellTiter Glo® Dye (Promega, Southampton, UK) and resulting luminescence measured using a TopCount scintillation counter (PerkinElmer, Waltham, MA, USA). Basal migration of cells to buffer alone was subtracted from the resulting data, with individual results expressed as a percentage of the total cells applied to the filter. In all experiments, each data point was assayed in duplicate. In every experiment, cells transiently expressing WT CXCR3 were used as a positive control.

CXCR3 Y205A = target: T2, CXCR3 Y205A (Homo sapiens, UniProt P49682, Y205A); assay: as above; type: cell-based
T2 construct: expressed in transfected cells; host or cells: murine pre-B cell line L1.2, transient transfection
T2 sequence (P49682 1-368 Y205A): T1 sequence (P49682 1-368 F207A) with Y205A, A207F
Protocol: as §1, §2

CXCR3 Y308A = target: T3, CXCR3 Y308A (Homo sapiens, UniProt P49682, Y308A); assay: as above; type: cell-based; settings: 30 nM CXCL11
T3 construct: expressed in transfected cells; host or cells: murine pre-B cell line L1.2, transient transfection
T3 sequence (P49682 1-368 Y308A): T1 sequence (P49682 1-368 F207A) with A207F, Y308A

CXCR3 Y60A = target: T4, CXCR3 Y60A (Homo sapiens, UniProt P49682, Y60A); assay: Whole-cell 125I-CXCL11 binding assay, L1.2 transfectants
T4 construct: expressed in transfected cells; host or cells: murine pre-B cell line L1.2, transient transfection
T4 sequence (P49682 1-368 Y60A): T1 sequence (P49682 1-368 F207A) with Y60A, A207F

[1] = tested on: six 'loss of charge' CXCR3 mutants; assay: Chemotaxis assay, panel of charged extracellular residue mutants; type: cell-based, human; settings: 30 nM CXCL11, 100 μM TAK-779, versus WT
Protocol: as §2
We have previously used an alternative panel of six ‘loss of charge’ CXCR3 mutants to determine the counterion for a negatively charged small molecule CXCR3 agonist (Nedjai et al., [2011]). Although these acidic residues lay outside our initially molecular modelling of the TAK-779:CXCR3 interaction, we tested the hypothesis that one or more of these acidic residues may contribute to TAK-779 binding. […]
Figure 6 Mutation of charged extracellular residues has no effect upon the ability of TAK-779 to inhibit chemotaxis in response to CXCL11. Migration of a panel of CXCR3 transfectants to 30 nM CXCL11 in the presence of 100 μM TAK-779 was determined.

Row | Compound | % of WT chemotaxis to 30 nM CXCL11 (mean ± SEM) (CXCR3 F207A) [%] | % of WT chemotaxis to 30 nM CXCL11 (mean ± SEM) (CXCR3 Y205A) [%] | increase in IC50 value, chemotaxis (CXCR3 Y308A; Y308A versus WT) | IC50 (CXCR3 Y308A; Y308A, read-out: IC50 chemotaxis (mean ± SEM)) [µM] | reduction in IC50 value, ligand binding (CXCR3 Y60A; Y60A relative to WT) | IC50 (CXCR3 Y60A; Y60A, 0.1 nM 125I-CXCL11, read-out: IC50 ligand binding (mean ± SEM)) [µM] | ability to inhibit migration to CXCL11 [1]
1 | CXCL11: recombinant human chemokine, CXCR3 agonist, purchased from PeproTech | 0.8 ± 0.8 | 35.5 ± 21.5 |  |  |  |  | 
2 | Cc1ccc(-c2ccc3c(c2)C=C(C(=O)Nc2ccc(C[N+](C)(C)C4CCOCC4)cc2)CCC3)cc1.[Cl-] [TAK-779, N,N-dimethyl-N-[4-[[[2-(4-methylphenyl)-6,7-dihydro-5H-benzocyclohepten-8-yl]-carbonyl]amino]benzyl] tetrahydro-2H-pyran-4-aminium chloride] |  |  | twofold | 41.4 ± 22.6 | twofold | 14 ± 7.07 | not reduced
